Data from patent US10392383B2, “3-(1H-benzo[d]imidazol-2-yl)-1H-pyrazolo[4,3-b]pyridines and therapeutic uses thereof” (Samumed, LLC, priority 2015, dated 2019).

System: primary human mesenchymal stem cells (hMSCs)
Experiment: Induction of chondrogenesis in human mesenchymal stem cells (nodule staining with Rhodamine B / Nile Red)
Type: cell-based
Conditions: for Emax: TGF-β3 (10 ng/mL) as positive control, read-out: Max. Activity as % TGF-β3 activity; for EC50: concentration required to induce 50% levels of chondrogenesis vs TGF-β3, read-out: Conc (nM) of 50% TGF-β3 activity
Experimental: Representative compounds were screened using primary human mesenchymal stem cells (hMSCs) to determine their ability to induce chondrogenesis (process by which cartilage is developed).
Human Mesenchymal Stem Cell Culture: Primary human mesenchymal stem cells (hMSCs) were purchased from Lonza (Walkersville, Md.) and expanded in Mesenchymal Stem Cell Growth Media (Lonza). Cells between passage 3 and 6 were used for the experiments.
Compound Screening: Each compound was dissolved in DMSO as a 10 mM stock and used to prepare compound source plates. For the 96 well assay, serial dilution (1:3, 6-point dose-response curves from 2700 nM to 10 nM) and compound transfer was performed using the ECHO 550 (Labcyte, Sunnyvale, Calif.) into 96-well clear bottom assay plates (Greiner Bio-One) with appropriate DMSO backfill for a final DMSO concentration of 0.03%. hMSCs were plated at 20,000 cells/well in 250 μL/well Incomplete Chondrogenic Induction Medium (Lonza; DMEM, dexamethasone, ascorbate, insulin-transferrin-selenium [ITS supplement], gentamycin-amphotericin [GA-1000], sodium pyruvate, proline and L-glutamine). TGF-β3 (10 ng/mL) was used as a positive control for differentiation while negative control wells were treated with 75 nL DMSO for normalization and calculating EC50 values. For the 384 well assay, serial dilution (1:3, 8-point dose-response curves from 5000 nM to 2.2 nM) and compound transfer was performed using the ECHO 550 (Labcyte, Sunnyvale, Calif.) into 384-well clear bottom assay plates (Greiner Bio-One) with appropriate DMSO backfill for a final DMSO concentration of 0.03%. hMSCs were plated at 8,000 cells/well in 80 μL/well Incomplete Chondrogenic Induction Medium (Lonza; DMEM, dexamethasone, ascorbate, insulin-transferrin-selenium [ITS supplement], gentamycin-amphotericin [GA-1000], sodium pyruvate, proline and L-glutamine). TGF-β3 (10 ng/mL) was used as a positive control for differentiation while negative control wells were treated with 25 nL DMSO for normalization and calculating EC50 values. Cells were incubated at 37° C. and 5% CO2 for 6 days. To image chondrogenic nodules, the cells were fixed using 4% formaldehyde (Electron Microscopy Sciences), and stained with 2 μg/mL Rhodamine B (Sigma-Aldrich) and 20 μM Nile Red (Sigma-Aldrich) [Johnson K., et. al, A Stem Cell-Based Approach to Cartilage Repair, Science, (2012), 336(6082), 717-721]. The nodules imaged (25 images per well for 96 well plates and 9 images per well for 384 well plates at 10× magnification) by excitation at 531 nm and emission at 625 nm and quantified using the CellInsight CX5 (Thermo Scientific). Area of nodules in each well was normalized to the average of 3 DMSO treated wells on the same plate using Excel (Microsoft Inc.). The normalized averages (fold change over DMSO) of 2 or 3 replicate wells for each compound concentration were calculated. Due to solubility limitations of some of the compounds, curve fitting was incomplete leading to inaccurate EC50 determinations.
Using TGF-β3 as a positive control, the concentration of representative compounds required to induce 50% levels of chondrogenesis is reported. In addition, the maximum activity of each compound and the respective dose that each compound reached maximum chondrogenesis activity is reported.

| EC50 | Compound | Emax |
| --- | --- | --- |
| 100 nM | CN(C)c1cncc(-c2ccc3[nH]nc(-c4nc5c(-c6cccs6)cccc5[nH]4)c3n2)c1 [Compound 343, N,N-Dimethyl-5-(3-(4-(thiophen-2-yl)-1H-benzo[d]imidazol-2-yl)-1H-pyrazolo[4,3-b]pyridin-5-yl)pyridin-3-amine] | 83% |
| 7 nM | Cc1cn(-c2cccc3[nH]c(-c4n[nH]c5ccc(-c6cncc(CN7CCCC7)c6)nc45)nc23)cn1 [Compound 210, 3-(4-(4-Methyl-1H-imidazol-1-yl)-1H-benzo[d]imidazol-2-yl)-5-(5-(pyrrolidin-1-ylmethyl)pyridin-3-yl)-1H-pyrazolo[4,3-b]pyridine] | 193% |
| 2 nM | COc1cncc(-c2ccc3[nH]nc(-c4nc5c(-c6cccc(F)c6)cccc5[nH]4)c3n2)c1 [Compound 516, 3-(4-(3-Fluorophenyl)-1H-benzo[d]imidazol-2-yl)-5-(5-methoxypyridin-3-yl)-1H-pyrazolo[4,3-b]pyridine] | 54% |
| 2 nM | CN(C)CCOc1cncc(-c2ccc3[nH]nc(-c4nc5c(-c6cccc(F)c6)cccc5[nH]4)c3n2)c1 [Compound 515, 2-((5-(3-(4-(3-Fluorophenyl)-1H-benzo[d]imidazol-2-yl)-1H-pyrazolo[4,3-b]pyridin-5-yl)pyridin-3-yl)oxy)-N,N-dimethylethan-1-amine] | 55% |
| 10 nM | CN(C)Cc1cncc(-c2ccc3[nH]nc(-c4nc5c(-c6cccs6)cccc5[nH]4)c3n2)c1 [Compound 349, N,N-dimethyl-1-(5-(3-(4-(thiophen-2-yl)-1H-benzo[d]imidazol-2-yl)-1H-pyrazolo[4,3-b]pyridin-5-yl)pyridin-3-yl)methanamine] | 51% |
| 10 nM | Cc1ncc(-c2ccc3[nH]nc(-c4nc5c(-c6cccc(F)c6)cccc5[nH]4)c3n2)n1C [Compound 509, 5-(1,2-Dimethyl-1H-imidazol-5-yl)-3-(4-(3-fluorophenyl)-1H-benzo[d]imidazol-2-yl)-1H-pyrazolo[4,3-b]pyridine] | 112% |
| 10 nM | CC(C)Nc1cncc(-c2ccc3[nH]nc(-c4nc5c(-c6cc(F)cc(NCCN(C)C)c6)cccc5[nH]4)c3n2)c1 [Compound 460, N^1-(3-Fluoro-5-(2-(5-(5-(isopropylamino)pyridin-3-yl)-1H-pyrazolo[4,3-b]pyridin-3-yl)-1H-benzo[d]imidazol-4-yl)phenyl)-N^2,N^2-dimethylethane-1,2-diamine] | 62% |
| 30 nM | CN(C)c1cncc(-c2ccc3[nH]nc(-c4nc5c(-c6cccc(F)c6)cccc5[nH]4)c3n2)c1 [Compound 7, 5-(3-(4-(3-fluorophenyl)-1H-benzo[d]imidazol-2-yl)-1H-pyrazolo[4,3-b]pyridin-5-yl)-N,N-dimethylpyridin-3-amine] | 53% |
| 7 nM | Fc1cccc(-c2cccc3[nH]c(-c4n[nH]c5ccc(-c6cncc(OC7CCNCC7)c6)nc45)nc23)c1 [Compound 512, 3-(4-(3-Fluorophenyl)-1H-benzo[d]imidazol-2-yl)-5-(5-(piperidin-4-yloxy)pyridin-3-yl)-1H-pyrazolo[4,3-b]pyridine] | 75% |
| 900 nM | CCCC(=O)Nc1cncc(-c2ccc3[nH]nc(-c4nc5c(-c6cc(F)cc(CNS(C)(=O)=O)c6)cccc5[nH]4)c3n2)c1 [Compound 493, N-(5-(3-(4-(3-Fluoro-5-(methylsulfonamidomethyl)phenyl)-1H-benzo[d]imidazol-2-yl)-1H-pyrazolo[4,3-b]pyridin-5-yl)pyridin-3-yl)butyramide] | 100% |
| 10 nM | c1cncc(-c2ccc3[nH]nc(-c4nc5ccccc5[nH]4)c3n2)c1 [Compound 256, 3-(1H-Benzo[d]imidazol-2-yl)-5-(pyridin-3-yl)-1H-pyrazolo[4,3-b]pyridine] | 85% |
| 30 nM | CN(C)Cc1cncc(-c2ccc3[nH]nc(-c4nc5c(-c6cccc(F)c6)cccc5[nH]4)c3n2)c1 [Compound 13, 1-(5-(3-(4-(3-Fluorophenyl)-1H-benzo[d]imidazol-2-yl)-1H-pyrazolo[4,3-b]pyridin-5-yl)pyridin-3-yl)-N,N-dimethylmethanamine] | 85% |

Second part, the molecule before the results:

| Compound | EC50 | Emax |
| --- | --- | --- |
| Cc1cn(-c2cccc3[nH]c(-c4n[nH]c5ccc(-c6cncc(NC(=O)C7CCC7)c6)nc45)nc23)cn1 [Compound 217, N-(5-(3-(4-(4-Methyl-1H-imidazol-1-yl)-1H-benzo[d]imidazol-2-yl)-1H-pyrazolo[4,3-b]pyridin-5-yl)pyridin-3-yl)cyclobutanecarboxamide] | – | 32% |
| Cc1ccncc1-c1ccc2[nH]nc(-c3nc4c(-c5cc(F)cc(CNS(C)(=O)=O)c5)cccc4[nH]3)c2n1 [Compound 481, N-(3-Fluoro-5-(2-(5-(4-methylpyridin-3-yl)-1H-pyrazolo[4,3-b]pyridin-3-yl)-1H-benzo[d]imidazol-4-yl)benzyl)methanesulfonamide] | – | 36% |
| CCCCC(=O)Nc1cncc(-c2ccc3[nH]nc(-c4nc5c(-c6cc(F)cc(NCCN(C)C)c6)cccc5[nH]4)c3n2)c1 [Compound 467, N-(5-(3-(4-(3-((2-(Dimethylamino)ethyl)amino)-5-fluorophenyl)-1H-benzo [d]imidazol-2-yl)-1H-pyrazolo[4,3-b]pyridin-5-yl)pyridin-3-yl)pentanamide] | – | 36% |
| CCNCc1cncc(-c2ccc3[nH]nc(-c4nc5c(-c6ccoc6)cccc5[nH]4)c3n2)c1 [Compound 314, N-((5-(3-(4-(Furan-3-yl)-1H-benzo[d]imidazol-2-yl)-1H-pyrazolo[4,3-b]pyridin-5-yl)pyridin-3-yl)methyl)ethanamine] | – | 32% |
| Cn1cc(-c2ccc3[nH]nc(-c4nc5c(-c6cccc(F)c6)cccc5[nH]4)c3n2)cn1 [Compound 508, 3-(4-(3-Fluorophenyl)-1H-benzo[d]imidazol-2-yl)-5-(1-methyl-1H-pyrazol-4-yl)-1H-pyrazolo[4,3-b]pyridine] | – | 48% |
| FC1(F)CCN(Cc2cncc(-c3ccc4[nH]nc(-c5nc6c(-c7ccsc7)cccc6[nH]5)c4n3)c2)C1 [Compound 306, 5-(5-((3,3-Difluoropyrrolidin-1-yl)methyl)pyridin-3-yl)-3-(4-(thiophen-3-yl)-1H-benzo[d]imidazol-2-yl)-1H-pyrazolo[4,3-b]pyridine] | – | 39% |
| Cc1ccncc1-c1ccc2[nH]nc(-c3nc4c(-c5ccsc5)cccc4[nH]3)c2n1 [Compound 285, 5-(4-Methylpyridin-3-yl)-3-(4-(thiophen-3-yl)-1H-benzo[d]imidazol-2-yl)-1H-pyrazolo[4,3-b]pyridine] | – | 32% |
| Oc1cncc(-c2ccc3[nH]nc(-c4nc5c(-c6cccc(F)c6)cccc5[nH]4)c3n2)c1 [Compound 517, 5-(3-(4-(3-Fluorophenyl)-1H-benzo[d]imidazol-2-yl)-1H-pyrazolo[4,3-b]pyridin-5-yl)pyridin-3-ol] | – | 45% |
| Cc1cn(-c2cccc3[nH]c(-c4n[nH]c5ccc(-c6cncc(NC(=O)CC(C)C)c6)nc45)nc23)cn1 [Compound 198, 3-Methyl-N-(5-(3-(4-(4-methyl-1H-imidazol-1-yl)-1H-benzo[d]imidazol-2-yl)-1H-pyrazolo[4,3-b]pyridin-5-yl)pyridin-3-yl)butanamide] | – | 44% |
| CCC(=O)Nc1cncc(-c2ccc3[nH]nc(-c4nc5c(-c6cccc(F)c6)cccc5[nH]4)c3n2)c1 [Compound 1, N-(5-(3-(4-(3-Fluorophenyl)-1H-benzo[d]imidazol-2-yl)-1H-pyrazolo[4,3-b]pyridin-5-yl)pyridin-3-yl)propionamide] | – | 99% |
| Fc1cccc(-c2cccc3[nH]c(-c4n[nH]c5ccc(C6CCNCC6)nc45)nc23)c1 [Compound 505, 3-(4-(3-Fluorophenyl)-1H-benzo[d]imidazol-2-yl)-5-(piperidin-4-yl)-1H-pyrazolo[4,3-b]pyridine] | – | 46% |
